# Test: Release of oxybutynin using ultrasound from oxybutynin-containing polymer matrix microparticles (reverse phase HPLC)
# Format: physicochemical
# Method: Four vials containing product manufactured in accordance with Example 5 were each reconstituted with 10 mL of 20 mM KPO4 at pH 3.5 (wash solution). The oxybutynin containing microparticles from two of the vials were retrieved by centrifugation at 1500 rpm for 15 minutes. The microparticles were resuspended in 10 mL of wash solution and vortexed. The washing procedure was repeated two more times. The final washed matrix microparticles were resuspended in a total volume of 10 mL of wash solution. The remaining two vials were not washed. One vial from each set was designated the control sample and the other vial was the experimental sample.
# The controls remained undisturbed for 80 minutes to allow the matrix microparticles to float. The subnatant was removed and centrifuged at 14,000 rpm for 2 minutes. The experimental samples were each sonicated for 1 minute on level 5 using a Virtis Virsonic hand-held sonicator. […] The suspensions were centrifuged at 14,000 rpm for 2 minutes. All four of the resulting supernatants were retrieved and analyzed by reverse phase HPLC. […] The amount of oxybutynin in each sample was calculated from the area using the standard curve.
smiles,measurement,setting,value
CCN(CC)CC#CCOC(=O)C(O)(c1ccccc1)C1CCCCC1 (centres unmarked) [oxybutynin],"burst release of oxybutynin, of the recovered amount",microparticles of Example 5,34%
same,"oxybutynin released due to sonication, of the recovered amount",microparticles of Example 5,66%
same,"amount of oxybutynin in supernatant, unwashed control sample","microparticles of Example 5, unwashed, not sonicated, undisturbed 80 minutes",0.65 mg oxybutynin/vial
same,"amount of oxybutynin in supernatant, unwashed experimental sample","microparticles of Example 5, unwashed, sonicated 1 minute level 5",1.93 mg/vial
same,leakage of drug after reconstitution,"microparticles of Example 5, washed control, burst release removed",little to no leakage
same,"amount of oxybutynin in supernatant, washed control sample","microparticles of Example 5, washed, not sonicated, undisturbed 80 minutes, 20 mM KPO4 pH 3.5",0.03 mg oxybutynin/vial
same,"amount of oxybutynin in supernatant, washed experimental sample","microparticles of Example 5, washed, sonicated 1 minute level 5, 20 mM KPO4 pH 3.5",1.05 mg/vial
same,total oxybutynin recovered after sonication compared to theoretical loading,"microparticles of Example 5, theoretical loading 2.4 mg/vial",80%

# Reference: patent US20040185108A1, “Method of preparing gas-filled polymer matrix microparticles useful for delivering drug” (priority 2003, published 2004)
